From paper PMC7782499, “Progerinin, an optimized progerin-lamin A binding inhibitor, ameliorates premature senescence phenotypes of Hutchinson-Gilford progeria syndrome” (Communications Biology, 2021)
Several values for one entry are separate records, joined by “and”; a condition that tells them apart may be missing. Equal values may be shown once.

Experiments:
Format in all cases: in vitro ADME
CYP1A2 = target: T1, CYP1A2 (Homo sapiens, UniProt P05177); test: CYP inhibition, CYP1A2
T1 sequence (P05177 1-516): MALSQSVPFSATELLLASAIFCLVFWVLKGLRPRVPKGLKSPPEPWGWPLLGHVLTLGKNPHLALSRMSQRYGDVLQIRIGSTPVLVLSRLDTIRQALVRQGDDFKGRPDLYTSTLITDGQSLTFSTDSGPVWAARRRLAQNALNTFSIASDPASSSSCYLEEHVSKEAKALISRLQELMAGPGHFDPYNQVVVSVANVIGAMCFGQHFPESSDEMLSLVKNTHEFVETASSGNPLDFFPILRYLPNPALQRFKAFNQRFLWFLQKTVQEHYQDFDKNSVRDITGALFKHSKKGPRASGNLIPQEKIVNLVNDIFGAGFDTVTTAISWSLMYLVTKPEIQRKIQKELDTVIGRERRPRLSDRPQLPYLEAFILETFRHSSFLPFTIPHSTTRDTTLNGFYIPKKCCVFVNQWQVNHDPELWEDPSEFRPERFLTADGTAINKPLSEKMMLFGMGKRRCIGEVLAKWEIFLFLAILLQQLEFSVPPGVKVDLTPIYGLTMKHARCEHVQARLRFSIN
Experimental: (§1) At pre-set time-points, blood concentration of JH4 was determined by LC-MS/MS analysis[22],[23]. Other chemicals were also tested using similar protocol. In vitro ADME studies (plasma protein binding, CYP inhibition, microsomal stability, plasma stability, and hERG inhibition) were performed by New Drug Development Center (Daegu, Korea) using standard protocols[24],[25].

CYP2C9 = CYP2C9 (Homo sapiens, UniProt P11712); test: CYP inhibition, CYP2C9; set-up: unit not given here
Chain of CYP2C9 (P11712 whole entry): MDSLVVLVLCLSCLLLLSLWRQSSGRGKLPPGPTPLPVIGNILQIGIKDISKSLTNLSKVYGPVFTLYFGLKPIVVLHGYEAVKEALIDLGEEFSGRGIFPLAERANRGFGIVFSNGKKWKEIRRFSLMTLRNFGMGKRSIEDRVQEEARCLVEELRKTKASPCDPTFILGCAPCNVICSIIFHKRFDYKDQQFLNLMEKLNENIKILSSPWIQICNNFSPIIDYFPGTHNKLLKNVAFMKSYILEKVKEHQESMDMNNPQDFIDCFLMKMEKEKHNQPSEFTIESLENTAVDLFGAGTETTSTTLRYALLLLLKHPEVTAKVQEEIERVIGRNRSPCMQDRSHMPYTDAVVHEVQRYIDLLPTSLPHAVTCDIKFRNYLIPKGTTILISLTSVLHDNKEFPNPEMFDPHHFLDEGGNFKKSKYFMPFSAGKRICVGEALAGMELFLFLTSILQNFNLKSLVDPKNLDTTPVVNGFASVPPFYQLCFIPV
Experimental: as §1

CYP2C19 = CYP2C19 (Homo sapiens, UniProt P33261); test: CYP inhibition, CYP2C19
Chain of CYP2C19 (P33261 whole entry): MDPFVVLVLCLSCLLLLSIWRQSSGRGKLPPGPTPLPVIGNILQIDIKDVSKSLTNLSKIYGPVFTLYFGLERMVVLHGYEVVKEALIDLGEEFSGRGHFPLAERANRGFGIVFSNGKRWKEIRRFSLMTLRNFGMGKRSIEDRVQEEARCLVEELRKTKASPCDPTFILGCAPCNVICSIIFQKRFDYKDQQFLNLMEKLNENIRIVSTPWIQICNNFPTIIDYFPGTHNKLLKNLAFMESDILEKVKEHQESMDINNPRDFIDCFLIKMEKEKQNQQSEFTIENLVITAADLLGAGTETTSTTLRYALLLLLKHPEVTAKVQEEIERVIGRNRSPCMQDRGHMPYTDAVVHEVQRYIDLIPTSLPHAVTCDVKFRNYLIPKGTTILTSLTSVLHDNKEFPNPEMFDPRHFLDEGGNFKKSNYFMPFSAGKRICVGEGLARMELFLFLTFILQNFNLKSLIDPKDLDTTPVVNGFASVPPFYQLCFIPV
Experimental: as §1, with “For PK analysis, 5 mg/kg of JH4 in 10% DMSO, 5% […] solution were intravenously injected and 10 mg/kg of JH4 in 10% NMP and 90% PEG400 solution were orally delivered. At” for “At”

In the case of CC(=O)N1CCN(c2ccc(OCC3COC(Cn4ccnc4)(c4ccc(Cl)cc4Cl)O3)cc2)CC1 (stereo not drawn) [Ketoconazole, reference compound], the CYP inhibition (CYP1A2) is reported as 99.1, the CYP inhibition (CYP2C9) is reported as 100 and the CYP inhibition (CYP2C19) is reported as 99.5 and > 100.
